Data as given in patent publication US20120009280A1, “METHOD OF REDUCING THE RATE OF DEGRADATION OF A BIOLOGICAL MATERIAL” (Bio-Energy Ingredients Limited, priority 2009, published 2012).

Key:
[1] = test system: mould; test: Mould count of spent brewer's / wet distiller's grains stored at ambient temperature; assay type: cell-based
Outline: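 Wet grain samples were mixed with a powdered treatment agent in a single initial mix, with no later treatment or agitation. Batches and untreated controls were kept under insect-proof screens at ambient temperature. Every seven days, a whole sample from each treatment went to a SANAS-approved microbiological laboratory. Mould counts were determined there following a procedure similar to Rosentrater et al. (2008).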

[2] = pH of suspensions of grain samples in distilled water or PBS; settings: for pH: 1% (w/w) in distilled water
Procedure: The untreated sample (A) was compared visually against the corresponding quicklime-treated sample (B).
On Day 7, 10 g amounts of each sample were suspended in either 90 ml PBS or 90 ml sterile distilled water and shaken for 10 minutes. The pH of each suspension was then measured and compared.
On Day 9, 10 g of each sample was suspended in 90 ml PBS and shaken for 10 minutes. The pH was measured.

[3] = test system: yeast; test: Yeast count of spent brewer's / wet distiller's grains stored at ambient temperature; assay type: cell-based
Procedure: Samples of Portion 1 (“AR”), Portion 3 (“SO”) and Portion 5 (“SH”) were then delivered to a microbiological testing facility about 15 kilometres from the treatment laboratory. Each was tested for initial total microbial, yeast and mould counts, respectively.
Separate untreated samples were similarly stored under insect-proof screens at ambient temperature for seven days (as shown in Tables 1 and 2). During the trial period the ambient temperature ranged from 11 to 33 degrees C.
(§1) The free moisture content on the initial spent brewer's grains was determined to be 78.1% m/m. After exposure to the environment for seven days, all of the samples were tested at a South African National Accreditation System (SANAS) approved microbiological testing facility. Each was tested for total micro-organism, yeast and mould counts to determine the affect of the various treatments. A similar procedure to that described in K. A. Rosentrater et al, Food Bioprocess Technol (2008) was used for the microbiological evaluation.
At the laboratory, the samples were thoroughly mixed and initially split into a first portion (Portion 1) and a second portion (Portion 2). Portion 1 was left untreated. A sample of Portion 1, was delivered immediately to a microbiological testing facility about 15 kilometres away from the treatment laboratory and was tested for initial total microbial, yeast and mould counts, respectively. No water removal prior to treatment was done in this experiment as was the case in Example 8 wherein a similar wet material was partially dewatered by pressing and the residue treated with 10% (w/w/) calcium oxide.
Samples from Portion 2 were subjected to treatment with varying amounts of a powdered, commercially-available calcium oxide containing approximately 94% calcium oxide (CaO) as shown in Table 32. The treatments varied from 2.5 to 10% (w/w) calcium oxide addition. The samples were stored in batches (according to the calcium oxide treatment) under insect-proof screens at ambient temperature for fifty six days. Separate untreated samples were similarly stored under insect-proof screens at ambient temperature for a total of 56 days. During the trial period the ambient temperature ranged from 10 to 30 degrees C. As this period was the southern hemisphere spring/early summer, the humidity as well as ambient temperatures varied widely.
as §1, with “79.4%” for “78.1%”
Samples from each treatment were drawn every seven days. No further calcium oxide treatment or agitation took place after the initial mix. In each case the entire sample was isolated and delivered to the microbiological testing facility.
The calcium oxide treatment trial described in Example 9 wherein wet distiller's grains were treated with 2.5%, 5% and 10.0% calcium oxide, respectively, versus untreated material was repeated using lower doses of calcium oxide. In this trial the same source of wet distiller's grains (again with now partial water removal prior to treatment) was treated. Also, the same protocol as described in Example 9 was applied, but at lower doses of calcium oxide i.e. 0.5%, 1.0%, 1.5%, 2.0% and 2.5%, respectively, versus untreated material.
In this trial the same source of wet distiller's grains (again with now partial water removal prior to treatment) was treated. Also, the same protocol as described in Example 9 was applied.

[4] = test system: yeast; test: as above; assay type: cell-based; remark: listed apart in the source
[5] = wet distiller's grains, 0.5% CaO (w/w), day 1
[6] = wet distiller's grains, 0.5% CaO (w/w), day 2
[7] = wet distiller's grains, 0.5% CaO (w/w), day 3
[8] = wet distiller's grains, 0.5% CaO (w/w), day 6
[9] = wet distiller's grains, 0.5% CaO (w/w), day 8
[10] = wet distiller's grains, 1.0% CaO (w/w), day 1
[11] = wet distiller's grains, 1.0% CaO (w/w), day 2
[12] = wet distiller's grains, 1.0% CaO (w/w), day 3
[13] = wet distiller's grains, 1.0% CaO (w/w), day 6
[14] = wet distiller's grains, 1.0% CaO (w/w), day 8
[15] = wet distiller's grains, 1.0% CaO (w/w), day 10
[16] = wet distiller's grains, 1.5% CaO (w/w), day 1
[17] = wet distiller's grains, 1.5% CaO (w/w), day 2
[18] = wet distiller's grains, 1.5% CaO (w/w), day 3
[19] = wet distiller's grains, 1.5% CaO (w/w), day 6
[20] = wet distiller's grains, 1.5% CaO (w/w), day 8
[21] = wet distiller's grains, 1.5% CaO (w/w), day 10
[22] = wet distiller's grains, 2.0% CaO (w/w), day 1
[23] = wet distiller's grains, 2.0% CaO (w/w), day 2
[24] = wet distiller's grains, 2.0% CaO (w/w), day 3
[25] = wet distiller's grains, 2.0% CaO (w/w), day 6
[26] = wet distiller's grains, 2.0% CaO (w/w), day 8
[27] = wet distiller's grains, 2.0% CaO (w/w), day 10
[28] = wet distiller's grains, 2.5% CaO (w/w), day 1
[29] = wet distiller's grains, 2.5% CaO (w/w), day 2
[30] = wet distiller's grains, 2.5% CaO (w/w), day 3
[31] = wet distiller's grains, 2.5% CaO (w/w), day 6
[32] = wet distiller's grains, 2.5% CaO (w/w), day 7
[33] = wet distiller's grains, 2.5% CaO (w/w), day 8
[34] = wet distiller's grains, 2.5% CaO (w/w), day 10
[35] = wet distiller's grains, 2.5% CaO (w/w), day 14
[36] = wet distiller's grains, 2.5% CaO (w/w), day 21
[37] = wet distiller's grains, 2.5% CaO (w/w), day 56
[38] = wet distiller's grains, 5.0% CaO (w/w), day 7
[39] = wet distiller's grains, 5.0% CaO (w/w), day 14
[40] = wet distiller's grains, 5.0% CaO (w/w), day 21
[41] = wet distiller's grains, 5.0% CaO (w/w), day 42
[42] = wet distiller's grains, 5.0% CaO (w/w), day 49
[43] = wet distiller's grains, 5.0% CaO (w/w), day 56
[44] = wet distiller's grains, 10.0% CaO (w/w), day 7
[45] = wet distiller's grains, 10.0% CaO (w/w), day 14
[46] = wet distiller's grains, 10.0% CaO (w/w), day 21
[47] = wet distiller's grains, 10.0% CaO (w/w), day 42
[48] = wet distiller's grains, 10.0% CaO (w/w), day 49
[49] = wet distiller's grains, 10.0% CaO (w/w), day 56

Structure (SMILES): [O]=[Ca] [calcium oxide]
- Mould Count ([1]; 5% CaO (w/w) powder, week 1): 10 cfu/gram
- Mould Count ([1]; 5% CaO (w/w) powder, week 2): 10 cfu/gram
- Mould Count ([1]; 5% CaO (w/w) powder, week 3): 10 cfu/gram
- Mould Count ([1]; 5% CaO (w/w) powder, week 4): 10 cfu/gram
- Mould Count ([1]; 5% CaO (w/w) powder, week 5): 10 cfu/gram
- Mould Count [1, 5]: <10 cfu/gram
- Mould Count [1, 6]: 30 cfu/gram
- Mould Count [1, 7]: 100 cfu/gram
- Mould Count [1, 8]: 37000 cfu/gram
- Mould Count [1, 9]: <10 cfu/gram
- Mould Count [1, 10]: <10 cfu/gram
- Mould Count [1, 11]: <10 cfu/gram
- Mould Count [1, 12]: <10 cfu/gram
- Mould Count [1, 13]: <10 cfu/gram
- Mould Count [1, 14]: <10 cfu/gram
- Mould Count [1, 15]: 91000 cfu/gram
- Mould Count [1, 16]: <10 cfu/gram
- Mould Count [1, 17]: <10 cfu/gram
- Mould Count [1, 18]: <10 cfu/gram
- Mould Count [1, 19]: <10 cfu/gram
- Mould Count [1, 20]: <10 cfu/gram
- Mould Count [1, 21]: <110 cfu/gram
- Mould Count [1, 22]: <10 cfu/gram
- Mould Count [1, 23]: <10 cfu/gram
- Mould Count [1, 24]: <10 cfu/gram
- Mould Count [1, 25]: <10 cfu/gram
- Mould Count [1, 26]: <10 cfu/gram
- Mould Count [1, 27]: <10 cfu/gram
- Mould Count [1, 28]: <10 cfu/gram
- Mould Count [1, 29]: <10 cfu/gram
- Mould Count [1, 30]: <10 cfu/gram
- Mould Count [1, 31]: <10 cfu/gram
- Mould Count [1, 32]: 10 cfu/gram
- Mould Count [1, 33]: <10 cfu/gram
- Mould Count [1, 34]: <10 cfu/gram
- Mould Count [1, 35]: 14,000 cfu/gram
- Mould Count [1, 36]: 170,000 cfu/gram
- Mould Count ([1]; wet distiller's grains, 2.5% CaO (w/w), day 42): 850,000 cfu/gram
- Mould Count ([1]; wet distiller's grains, 2.5% CaO (w/w), day 49): 320,000 cfu/gram
- Mould Count [1, 37]: 1,240,000 cfu/gram
- Mould Count [1, 38]: 10 cfu/gram
- Mould Count [1, 39]: 10 cfu/gram
- Mould Count [1, 40]: 150 cfu/gram
- Mould Count [1, 41]: 20 cfu/gram
- Mould Count [1, 42]: 90 cfu/gram
- Mould Count [1, 43]: 90 cfu/gram
- Mould Count [1, 44]: 10 cfu/gram
- Mould Count [1, 45]: 10 cfu/gram
- Mould Count [1, 46]: 10 cfu/gram
- Mould Count [1, 47]: 70 cfu/gram
- Mould Count [1, 48]: 80 cfu/gram
- Mould Count [1, 49]: 16 cfu/gram
- pH ([2]; 0.5% CaO (w/w), day 1): 7.97
- pH ([2]; 0.5% CaO (w/w), day 2): 8.06
- pH ([2]; 0.5% CaO (w/w), day 3): 7.63
- pH ([2]; 0.5% CaO (w/w), day 6): 7.38
- pH ([2]; 0.5% CaO (w/w), day 8): 7.80
- pH ([2]; 1.0% CaO (w/w), day 1): 8.86
- pH ([2]; 1.0% CaO (w/w), day 2): 8.82
- pH ([2]; 1.0% CaO (w/w), day 3): 9.19
- pH ([2]; 1.0% CaO (w/w), day 6): 9.21
- pH ([2]; 1.0% CaO (w/w), day 8): 7.89
- pH ([2]; 1.0% CaO (w/w), day 10): 8.27
- pH ([2]; 1.5% CaO (w/w), day 1): 9.10
- pH ([2]; 1.5% CaO (w/w), day 2): 9.15
- pH ([2]; 1.5% CaO (w/w), day 3): 9.95
- pH ([2]; 1.5% CaO (w/w), day 6): 9.84
- pH ([2]; 1.5% CaO (w/w), day 8): 9.10
- pH ([2]; 1.5% CaO (w/w), day 10): 10.84
- pH ([2]; 2.0% CaO (w/w), day 1): 10.68
- pH ([2]; 2.0% CaO (w/w), day 2): 10.10
- pH ([2]; 2.0% CaO (w/w), day 3): 9.48
- pH ([2]; 2.0% CaO (w/w), day 6): 11.22
- pH ([2]; 2.0% CaO (w/w), day 8): 9.76
- pH ([2]; 2.0% CaO (w/w), day 10): 9.97
- pH ([2]; 2.5% CaO (w/w), day 1): 11.48
- pH ([2]; 2.5% CaO (w/w), day 2): 11.08
- pH ([2]; 2.5% CaO (w/w), day 3): 11.41
- pH ([2]; 2.5% CaO (w/w), day 6): 11.55
- pH ([2]; 2.5% CaO (w/w), day 8): 10.29
- pH ([2]; 2.5% CaO (w/w), day 10): 8.87
- pH ([2]; 5% CaO (w/w) powder, week 1): 11.36
- pH ([2]; 5% CaO (w/w) powder, week 2): 11.00
- pH ([2]; 5% CaO (w/w) powder, week 3): 12.20
- pH ([2]; 5% CaO (w/w) powder, week 4): 11.61
- pH ([2]; 5% CaO (w/w) powder, week 5): 11.34
- pH of treated wet distiller's grains ([2]; calcium oxide 0.5% (w/w), Example 14): below 8
- Yeast Count ([3]; 5% CaO (w/w) powder, week 4): 10 cfu/gram
- Yeast Count [3, 6]: <10 cfu/gram
- Yeast Count [3, 10]: <10 cfu/gram
- Yeast Count [3, 21]: <10 cfu/gram
- Yeast Count [3, 23]: <10 cfu/gram
- Yeast Count [3, 35]: 52,000 cfu/gram
- Yeast Count [3, 40]: 10 cfu/gram
- Yeast Count [3, 45]: 120 cfu/gram
- Yeast Count ([4]; 5% CaO (w/w) powder, week 1): 10 cfu/gram
- Yeast Count ([4]; 5% CaO (w/w) powder, week 2): 10 cfu/gram
- Yeast Count ([4]; 5% CaO (w/w) powder, week 3): 113 cfu/gram
- Yeast Count ([4]; 5% CaO (w/w) powder, week 5): 10 cfu/gram
- Yeast Count [4, 5]: <10 cfu/gram
- Yeast Count [4, 7]: <10 cfu/gram
- Yeast Count [4, 8]: 40000 cfu/gram
- Yeast Count [4, 9]: <10 cfu/gram
- Yeast Count [4, 11]: <10 cfu/gram
- Yeast Count [4, 12]: <10 cfu/gram
- Yeast Count [4, 13]: <10 cfu/gram
- Yeast Count [4, 14]: <10 cfu/gram
- Yeast Count [4, 15]: 20 cfu/gram
- Yeast Count [4, 16]: <10 cfu/gram
- Yeast Count [4, 17]: <10 cfu/gram
- Yeast Count [4, 18]: <10 cfu/gram
- Yeast Count [4, 19]: <10 cfu/gram
- Yeast Count [4, 20]: <10 cfu/gram
- Yeast Count [4, 22]: <10 cfu/gram
- Yeast Count [4, 24]: <10 cfu/gram
- Yeast Count [4, 25]: <10 cfu/gram
- Yeast Count [4, 26]: <10 cfu/gram
- Yeast Count [4, 27]: <10 cfu/gram
- Yeast Count [4, 28]: <10 cfu/gram
- Yeast Count [4, 29]: <10 cfu/gram
- Yeast Count [4, 30]: <10 cfu/gram
- Yeast Count [4, 31]: <10 cfu/gram
- Yeast Count [4, 32]: 10 cfu/gram
- Yeast Count [4, 33]: <10 cfu/gram
- Yeast Count [4, 34]: <10 cfu/gram
- Yeast Count [4, 36]: 53,000 cfu/gram
- Yeast Count [4, 37]: 115,000 cfu/gram
- Yeast Count [4, 38]: 10 cfu/gram
- Yeast Count [4, 39]: 10 cfu/gram
- Yeast Count [4, 41]: 10 cfu/gram
- Yeast Count [4, 42]: 20 cfu/gram
- Yeast Count [4, 43]: 20 cfu/gram
- Yeast Count [4, 44]: 10 cfu/gram
- Yeast Count [4, 46]: 10 cfu/gram
- Yeast Count [4, 47]: 10 cfu/gram
- Yeast Count [4, 48]: 10 cfu/gram
- Yeast Count [4, 49]: 10 cfu/gram
